The EC50 is the concentration needed to bring the measured effect to its halfway point. As a reminder, the Kd is the concentration at which binding is half-saturated. The IC50 is the concentration needed to halve the response being measured.

From ChEMBL document CHEMBL5550094, “Design, synthesis and anti-necroptosis activity of fused heterocyclic MLKL inhibitors” (Bioorg Med Chem, 2024) come the findings set out here.

Activity calls are given as the source filed them. The calls are words filed in the database; no cut-off is given here.

Assay [1] deals with HT-29. The assay can be described thus: Anti-necroptosis activity against TNFalpha/Smac mimetic/Z-VAD-fmk-induced human HT-29 cells by CellTiter luminescence cell viability assay. The format is functional, cell-based.
Assay [2] has as its system HT-29. In words: Anti-necroptosis activity against TNFalpha/Smac mimetic/Z-VAD-fmk-induced human HT-29 cells measured after 24 hrs by CellTiter-Glo assay. The format is functional, cell-based. To be noted: HT-29, 24 h.
The test system of a further assay is L929. The assay can be described thus: Anti-necroptosis activity against TNF-alpha/Z-VAD-FMK induced mouse L929 cells at 20 uM. The format is functional, cell-based.
Assay [3] deals with T1, Mixed lineage kinase domain-like protein (Homo sapiens) (UniProt Q8NB16).
T1 sequence (whole entry): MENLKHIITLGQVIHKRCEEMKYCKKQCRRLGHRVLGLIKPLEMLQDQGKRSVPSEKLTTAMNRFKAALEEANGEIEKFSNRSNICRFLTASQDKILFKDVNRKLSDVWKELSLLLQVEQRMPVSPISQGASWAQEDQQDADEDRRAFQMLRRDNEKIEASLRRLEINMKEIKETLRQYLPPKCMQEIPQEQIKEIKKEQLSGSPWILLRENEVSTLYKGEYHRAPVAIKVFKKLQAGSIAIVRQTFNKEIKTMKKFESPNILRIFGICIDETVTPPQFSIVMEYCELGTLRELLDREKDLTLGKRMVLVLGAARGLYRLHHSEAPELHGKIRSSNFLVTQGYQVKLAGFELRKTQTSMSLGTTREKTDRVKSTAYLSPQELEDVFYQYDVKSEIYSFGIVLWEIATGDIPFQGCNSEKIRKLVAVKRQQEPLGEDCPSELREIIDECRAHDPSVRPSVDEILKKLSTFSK
The assay can be described thus: Covalent inhibition of MLKL in TNFalpha/Smac mimetic/Z-VAD-fmk-induced human HT-29 cells assessed as inhibition of necroptosis pretreated for 3 hrs followed by washout and further treated with TNFalpha/Smac mimetic/Z-VAD-fmk and measured after 8 hrs by CellTiter luminescence cell viability assay. The format is cell-based.

Assay [4] has as its target T1, Mixed lineage kinase domain-like protein (Homo sapiens). In words: Covalent inhibition of MLKL in TNFalpha/Smac mimetic/Z-VAD-fmk-induced human HT-29 cells assessed as inhibition of necroptosis pretreated for 5 mins followed by washout and further treated with TNFalpha/Smac mimetic/Z-VAD-fmk and measured after 8 hrs by CellTiter luminescence cell viability assay. Format: cell-based.

For assay [5] the target is unchanged. In words: Inhibition of MLKL phosphorylation in TNFalpha/Smac mimetic/Z-VAD-fmk-induced human HT-29 cells at 2 uM measured after 6 hrs by Western blot analysis. The format is cell-based.
The target is the same in assay [6]. In words: Covalent inhibition of MLKL in TNFalpha/Smac mimetic/Z-VAD-fmk-induced human HT-29 cells assessed as inhibition of necroptosis pretreated for 1 hrs followed by washout and further treated with TNFalpha/Smac mimetic/Z-VAD-fmk and measured after 8 hrs by CellTiter luminescence cell viability assay. Format: cell-based.
In assay [7] the target is T2, Receptor-interacting serine/threonine-protein kinase 3 (Homo sapiens, UniProt Q9Y572). In words: Inhibition of RIPK3 phosphorylation in TNFalpha/Smac mimetic/Z-VAD-fmk-induced human HT-29 cells at 2 uM measured after 6 hrs by Western blot analysis. The format is cell-based. A general note: Immunoblotting shows a protein as a band on a membrane.
Target sequence in this assay (Q9Y572 whole entry, looked up): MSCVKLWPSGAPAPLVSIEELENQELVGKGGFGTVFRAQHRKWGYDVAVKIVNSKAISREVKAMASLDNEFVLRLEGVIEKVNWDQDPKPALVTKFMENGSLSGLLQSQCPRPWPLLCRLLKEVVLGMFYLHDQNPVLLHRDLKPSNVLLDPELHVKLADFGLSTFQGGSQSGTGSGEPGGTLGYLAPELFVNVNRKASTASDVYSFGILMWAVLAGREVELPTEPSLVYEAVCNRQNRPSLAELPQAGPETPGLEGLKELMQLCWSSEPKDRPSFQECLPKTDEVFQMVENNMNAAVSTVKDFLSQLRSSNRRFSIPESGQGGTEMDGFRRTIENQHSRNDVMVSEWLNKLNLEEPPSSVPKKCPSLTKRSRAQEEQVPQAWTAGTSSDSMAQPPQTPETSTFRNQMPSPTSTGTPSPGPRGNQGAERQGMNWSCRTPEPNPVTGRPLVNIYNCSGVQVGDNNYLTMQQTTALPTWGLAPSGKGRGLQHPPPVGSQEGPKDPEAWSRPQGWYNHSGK
For assay [8], the target named is T3, Receptor-interacting serine/threonine-protein kinase 1 (Homo sapiens, UniProt Q13546).
T3 sequence (Q13546 whole entry): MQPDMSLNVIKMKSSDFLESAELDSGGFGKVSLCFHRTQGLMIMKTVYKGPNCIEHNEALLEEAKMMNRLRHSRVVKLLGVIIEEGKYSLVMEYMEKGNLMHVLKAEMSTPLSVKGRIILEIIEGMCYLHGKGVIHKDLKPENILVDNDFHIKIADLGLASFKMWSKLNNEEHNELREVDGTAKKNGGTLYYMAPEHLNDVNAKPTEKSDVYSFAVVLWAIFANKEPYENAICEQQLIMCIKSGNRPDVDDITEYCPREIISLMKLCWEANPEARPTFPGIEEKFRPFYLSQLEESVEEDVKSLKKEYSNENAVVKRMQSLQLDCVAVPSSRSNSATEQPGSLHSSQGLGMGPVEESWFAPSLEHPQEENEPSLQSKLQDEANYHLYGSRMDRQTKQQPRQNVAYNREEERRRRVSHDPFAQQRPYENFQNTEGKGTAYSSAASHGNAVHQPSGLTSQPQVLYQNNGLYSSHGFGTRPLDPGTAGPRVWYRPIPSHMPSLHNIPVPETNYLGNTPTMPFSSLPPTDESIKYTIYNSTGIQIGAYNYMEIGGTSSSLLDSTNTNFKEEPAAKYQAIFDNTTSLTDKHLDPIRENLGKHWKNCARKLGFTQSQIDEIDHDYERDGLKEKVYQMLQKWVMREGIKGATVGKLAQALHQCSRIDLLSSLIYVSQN
The assay can be described thus: Binding affinity to RIPK1 (unknown origin) assessed as dissociation constant by displacement assay.

The target of assay [9] is T2, Receptor-interacting serine/threonine-protein kinase 3. In words: Binding affinity to RIPK3 (unknown origin) assessed as dissociation constant by displacement assay.
Target sequence in this assay (Q9Y572 whole entry): as the sequence (Q9Y572 whole entry, looked up) above
Assay [10] is described as follows: Anti-necroptosis activity against TNF-alpha induced human Jurkat-FADD-/- cells pretreated for 30 mins followed by TNF-alpha addition and further incubated overnight by CellTiter-Glo 2.0 assay. Format: functional, cell-based.

In the case of `O=C(/C=C/c1ccc([N+](=O)[O-])s1)Nc1ccc(S(=O)(=O)Nc2nc3ccc(OC(F)(F)F)cc3s2)cc1`, the EC50 with HT-29 [1] was over 20000 nM.
For `COc1nccnc1NS(=O)(=O)c1ccc(NC(=O)/C=C/c2cccs2)cc1`, the EC50 in the assay on HT-29 [2] was over 20000 nM.
Consider `Cn1c(NS(=O)(=O)c2ccc(NC(=O)/C=C/c3ccc([N+](=O)[O-])s3)cc2)nc2ccccc21`, for which the EC50 in the assay with HT-29 [1] amounted to 478 nM.
On the same count and under the same terms, under `O=C(/C=C/c1ccc([N+](=O)[O-])s1)Nc1ccc(S(=O)(=O)Nc2nccc3ccccc23)cc1` stands 734 nM; under `O=C(/C=C/c1ccc([N+](=O)[O-])s1)Nc1ccc(S(=O)(=O)Nc2ccc3ccccc3n2)cc1`, 329 nM.
The same measure, in the same setting: as for `O=C(/C=C/c1ccc([N+](=O)[O-])s1)Nc1ccc(S(=O)(=O)Nc2nc3ccc(Br)cc3s2)cc1`, the figure is over 20000 nM.
As to `COc1cccc2sc(NS(=O)(=O)c3ccc(NC(=O)/C=C/c4ccc([N+](=O)[O-])s4)cc3)nc12`, the concentration giving a half-maximal response (EC50) in the assay on HT-29 [1] was determined as 596 nM. Moreover, the result in the assay with L929 was inactive. Also, the inhibition result in assay [3] and in [6] was “Active” throughout. In addition, the inhibition entry in assay [4], in assay [5] and in assay [7] was “inactive” each time.
Compound `COc1ccc2nc(NS(=O)(=O)c3ccc(NC(=O)/C=C/c4ccc([N+](=O)[O-])s4)cc3)sc2c1` returned an EC50 in the assay on HT-29 [1] of 5080 nM.
On the same count and under the same terms, under `O=C(/C=C/c1ccc([N+](=O)[O-])s1)Nc1ccc(S(=O)(=O)Nc2ncnc3ccccc23)cc1` stands 526 nM.
With `O=C(/C=C/c1ccc([N+](=O)[O-])s1)Nc1ccc(S(=O)(=O)Nc2ccnc3ccccc23)cc1`, in the assay on HT-29 [1], the EC50 was 579 nM.
In the assay with HT-29 [1], `O=C(/C=C/c1ccc([N+](=O)[O-])s1)Nc1ccc(S(=O)(=O)Nc2nc3c(F)cccc3s2)cc1` showed an EC50 of 7460 nM.
For `Nc1nccnc1C(=O)O[C@@H](C(=O)Nc1ccc(F)cc1)c1ccccc1`, the Kd in assay [8] and in assay [9] was over 30000 nM in each case. The IC50 in assay [10] is over 40000 nM.
Regarding `Cc1ccc2sc(NS(=O)(=O)c3ccc(NC(=O)/C=C/c4ccc([N+](=O)[O-])s4)cc3)nc2c1`, the EC50 in the assay with HT-29 [1] is 2580 nM.
On the same count and under the same terms, as for `O=C(/C=C/c1ccc([N+](=O)[O-])s1)Nc1ccc(S(=O)(=O)Nc2nc3cc(F)ccc3s2)cc1`, the figure is 6750 nM.
As for `C[C@@H](Oc1cc(-c2cnn(C3CCNCC3)c2)cnc1N)c1c(Cl)ccc(F)c1Cl` [CRIZOTINIB], the IC50 in assay [10] is over 40000 nM.
In turn, `O=C(/C=C/c1ccc([N+](=O)[O-])s1)Nc1ccc(S(=O)(=O)Nc2nc3ccccc3s2)cc1` showed an EC50 with HT-29 [1] of 1510 nM.
On the same count and under the same terms, under `COc1nccnc1NS(=O)(=O)c1ccc(NC(=O)/C=C/c2ccc([N+](=O)[O-])o2)cc1` stands 6410 nM.
In the assay with HT-29 [1], `O=C(/C=C/c1ccc([N+](=O)[O-])s1)Nc1ccc(S(=O)(=O)Nc2ncc3ccccc3n2)cc1` showed an EC50 of 148 nM. In the assay on L929, the outcome was inactive. In addition, the inhibition result in assay [3] and in [6] was “Active” each time. Moreover, the inhibition result in assay [4], in assay [5] and in assay [7] was “inactive” each time.
In the assay with HT-29 [1], `Cc1ccc2nc(NS(=O)(=O)c3ccc(NC(=O)/C=C/c4ccc([N+](=O)[O-])s4)cc3)sc2c1` had an EC50 of 2910 nM.
In the case of `Cc1cccc2sc(NS(=O)(=O)c3ccc(NC(=O)/C=C/c4ccc([N+](=O)[O-])s4)cc3)nc12`, the EC50 in the assay on HT-29 [1] worked out at 2750 nM.
Same read-out and setting: as for `O=C(/C=C/c1ccc([N+](=O)[O-])s1)Nc1ccc(S(=O)(=O)Nc2cncc3ccccc23)cc1`, the figure is 427 nM; as for `COc1ccc2sc(NS(=O)(=O)c3ccc(NC(=O)/C=C/c4ccc([N+](=O)[O-])s4)cc3)nc2c1`, 7030 nM.
On the same count and under the same terms, as for `O=C(/C=C/c1ccc([N+](=O)[O-])s1)Nc1ccc(S(=O)(=O)Nc2nc3ccc(F)cc3s2)cc1`, the figure is 5150 nM.
Still for that read-out and setting: under `O=C(/C=C/c1ccc([N+](=O)[O-])s1)Nc1ccc(S(=O)(=O)Nc2cnc3ccccc3c2)cc1` stands 406 nM.
`O=C(/C=C/c1ccc([N+](=O)[O-])s1)Nc1ccc(S(=O)(=O)Nc2nc3c(Cl)cccc3s2)cc1` registered an EC50 with HT-29 [1] of 6230 nM.
Regarding `COc1nccnc1NS(=O)(=O)c1ccc(NC(=O)/C=C/c2ccc([N+](=O)[O-])s2)cc1`, it took 447 nM to reach a half-maximal effect in the assay on HT-29 [2] (EC50). The inhibition result in [5] and in assay [7] was “inactive” throughout.
Consider `O=C(/C=C/c1ccc([N+](=O)[O-])s1)Nc1ccc(S(=O)(=O)Nc2nc3c(Br)cccc3s2)cc1`, for which, in the assay with HT-29 [1], a half-maximal effect (EC50) was put at 7350 nM.
The same measure, in the same setting: under `O=C(/C=C/c1ccc([N+](=O)[O-])s1)Nc1ccc(S(=O)(=O)Nc2cc3ccccc3cn2)cc1` stands 621 nM; under `O=C(/C=C/c1ccc([N+](=O)[O-])s1)Nc1ccc(S(=O)(=O)Nc2nc3cc(Br)ccc3s2)cc1`, over 20000 nM; under `O=C(/C=C/c1ccc([N+](=O)[O-])s1)Nc1ccc(S(=O)(=O)Nc2ccc3nccnc3c2)cc1`, 480 nM.
The same measure, in the same setting: as for `O=C(/C=C/c1ccc([N+](=O)[O-])s1)Nc1ccc(S(=O)(=O)Nc2nc3cc(Cl)ccc3s2)cc1`, the figure is 16200 nM.
Consider `COc1nccnc1NS(=O)(=O)c1ccc(NC(=O)CCc2ccc([N+](=O)[O-])s2)cc1`, for which, in the assay on HT-29 [2], the EC50 was over 20000 nM.
Turning to `O=C(/C=C/c1ccc([N+](=O)[O-])s1)Nc1ccc(S(=O)(=O)Nc2cnc3ccccc3n2)cc1`, the EC50 in the assay on HT-29 [1] was 384 nM.
As to `O=C(/C=C/c1ccc([N+](=O)[O-])s1)Nc1ccc(S(=O)(=O)Nc2nc3ccc(C(F)(F)F)cc3s2)cc1`, the EC50 in the assay on HT-29 [1] is over 20000 nM.
The same measure, in the same setting: as for `O=C(/C=C/c1ccc([N+](=O)[O-])s1)Nc1ccc(S(=O)(=O)Nc2nc3ccccc3o2)cc1`, the figure is 1570 nM; as for `O=C(/C=C/c1ccc([N+](=O)[O-])s1)Nc1ccc(S(=O)(=O)Nc2nc3ccc(Cl)cc3s2)cc1`, 13800 nM.
Turning to `COc1nccnc1NS(=O)(=O)c1ccc(NC(=O)CCc2cccs2)cc1`, the EC50 with HT-29 [2] is over 20000 nM.
